The values that follow come from patent US9505762B2, “Purine derivatives as CB2 receptor agonists” (Hoffmann-La Roche Inc., priority 2013, dated 2016).

As usually defined, the EC50 is the midpoint of the concentration-response curve. Lower therefore signals an effect from little substance.

For one assay, the target named is human CB2 receptors (Homo sapiens (Human), UniProt P34972). In words: functional cAMP assay, CB2. The format is cell-based. The note with it: CHO cells expressing human CB2. A general note: cAMP levels reflect the balance of adenylyl cyclase and phosphodiesterase activity.
For another assay, the target named is human CB1 receptors (Homo sapiens (Human), UniProt P21554). In words: functional cAMP assay, CB1. The assay is classed as cell-based. As to conditions: CHO cells expressing human CB1.
Sequence of human CB1 receptors (P21554 whole entry): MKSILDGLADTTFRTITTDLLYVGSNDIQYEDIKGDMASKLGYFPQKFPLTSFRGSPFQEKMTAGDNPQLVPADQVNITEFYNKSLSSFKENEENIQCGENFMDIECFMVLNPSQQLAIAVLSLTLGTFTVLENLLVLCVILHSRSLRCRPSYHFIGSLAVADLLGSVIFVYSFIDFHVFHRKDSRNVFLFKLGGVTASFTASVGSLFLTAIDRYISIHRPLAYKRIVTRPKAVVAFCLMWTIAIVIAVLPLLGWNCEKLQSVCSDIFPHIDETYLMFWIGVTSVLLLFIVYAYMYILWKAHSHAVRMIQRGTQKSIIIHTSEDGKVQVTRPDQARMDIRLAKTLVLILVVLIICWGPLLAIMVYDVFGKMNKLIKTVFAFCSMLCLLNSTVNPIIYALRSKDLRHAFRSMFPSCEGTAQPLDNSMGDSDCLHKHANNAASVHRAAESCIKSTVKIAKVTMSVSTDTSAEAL

Sequence of human CB2 receptors (P34972 whole entry): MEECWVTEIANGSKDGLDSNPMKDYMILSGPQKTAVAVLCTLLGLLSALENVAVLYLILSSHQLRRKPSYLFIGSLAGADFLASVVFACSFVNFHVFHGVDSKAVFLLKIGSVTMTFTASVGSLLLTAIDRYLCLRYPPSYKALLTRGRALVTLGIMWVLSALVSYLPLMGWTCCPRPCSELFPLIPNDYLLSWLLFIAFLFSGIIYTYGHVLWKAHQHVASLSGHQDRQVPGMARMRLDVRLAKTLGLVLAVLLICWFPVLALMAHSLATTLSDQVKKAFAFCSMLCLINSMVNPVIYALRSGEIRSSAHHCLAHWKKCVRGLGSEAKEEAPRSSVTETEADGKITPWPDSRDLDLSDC

In the case of `Cc1nnc(Cn2cnc3c(N4CCC(F)(F)C4)nc(OCC(C)(C)C)nc32)o1` [Example 127, 2-[[6-(3,3-difluoropyrrolidin-1-yl)-2-(2,2-dimethylpropoxy)purin-9-yl]methyl]-5-methyl-1,3,4-oxadiazole], the EC50 on human CB2 receptors was 332 nM; at human CB1 receptors it was above 10000 nM.
For the molecule `Cc1noc(Cn2cnc3c(N4CCC(F)(F)C4)nc(OCC(C)(C)C)nc32)n1` [Example 128, 5-[[6-(3,3-difluoropyrrolidin-1-yl)-2-(2,2-dimethylpropoxy)purin-9-yl]methyl]-3-methyl-1,2,4-oxadiazole], the EC50 on human CB2 receptors was 109 nM; at human CB1 receptors, above 10000 nM.
On the same counts, the results for `Cn1nnnc1Cn1cnc2c(N3CCC(F)(F)C3)nc(OCC(C)(C)C)nc21` [Example 129, 6-(3,3-difluoropyrrolidin-1-yl)-2-(2,2-dimethylpropoxy)-9-[(1-methyltetrazol-5-yl)methyl]purine] are 95.6 nM and above 10000 nM.
On the same counts, the results for `CC(C)(C)Nc1nc(N2CC[C@H](O)C2)c2ncn(CCC(F)(F)F)c2n1` [Example 130, (3S)-1-[2-(tert-butylamino)-9-(3,3,3-trifluoropropyl)purin-6-yl]pyrrolidin-3-ol] are 215 nM and above 10000 nM.
For `CC(C)(C)COc1nc(N2CCC(C)(O)C2)c2ncn(Cc3ccccc3Cl)c2n1` (stereo not drawn) [Example 131, 1-[9-[(2-chlorophenyl)methyl]-2-(2,2-dimethylpropoxy)purin-6-yl]-3-methyl pyrrolidin-3-ol], the EC50 is 66.7 nM at human CB2 receptors and above 10000 nM at human CB1 receptors.
Taken in the same sequence, the figures for `CC(C)(C)COc1nc(N2CCC(C)(O)C2)c2ncn(Cc3ccccc3C(F)(F)F)c2n1` (stereo not drawn) [Example 132, 1-[2-(2,2-dimethylpropoxy)-9-[[2-(trifluoromethyl)phenyl]methyl]purin-6-yl]-3-methylpyrrolidin-3-ol] were 22.1 nM and above 10000 nM.
As for `CC(C)(C)COc1nc(N2CCC(C)(O)C2)c2ncn(Cc3ccccc3S(C)(=O)=O)c2n1` (stereo not drawn) [Example 133, 1-[2-(2,2-dimethylpropoxy)-9-[(2-methylsulfonylphenyl)methyl]purin-6-yl]-3-methylpyrrolidin-3-ol], the EC50 on human CB2 receptors was 149 nM; at human CB1 receptors, above 10000 nM.
Consider `CC(C)(C)COc1nc(N2CCC(C)(O)C2)c2ncn(Cc3ncccc3Cl)c2n1` (stereo not drawn) [Example 134, 1-[9-[(3-chloropyridin-2-yl)methyl]-2-(2,2-dimethylpropoxy)purin-6-yl]-3-methylpyrrolidin-3-ol], for which the half-maximal effective concentration (EC50) on human CB2 receptors is 178 nM; at human CB1 receptors, above 10000 nM.
As for `Cc1nonc1Cn1cnc2c(N3CCC(C)(O)C3)nc(OCC(C)(C)C)nc21` (stereo not drawn) [Example 135, 1-[2-(2,2-dimethylpropoxy)-9-[(4-methyl-1,2,5-oxadiazol-3-yl)methyl]purin-6-yl]-3-methylpyrrolidin-3-ol], the 50% effective concentration (EC50) on human CB2 receptors was 30.7 nM; on human CB1 receptors it was above 10000 nM.
Taken in the same sequence, the figures for `CC1(O)CCN(c2nc(NC(C)(C)C)nc3c2ncn3Cc2c[nH]nc2C(F)(F)F)C1` (stereo not drawn) [Example 136, 1-[2-(tert-butylamino)-9-[[3-(trifluoromethyl)-1H-pyrazol-4-yl]methyl]purin-6-yl]-3-methylpyrrolidin-3-ol] were 150 nM and above 10000 nM.
Regarding `CC(C)(C)Nc1nc(N2CC3(COC3)C2)c2ncn(Cc3ccccc3Cl)c2n1` [Example 138, N-tert-butyl-9-[(2-chlorophenyl)methyl]-6-(2-oxa-6-azaspiro[3.3]heptan-6-yl)purin-2-amine], the results for the half-maximal effective concentration (EC50) on human CB2 receptors and on human CB1 receptors were 78.1 nM and above 10000 nM, respectively.
Regarding `CC(C)(C)c1nc(N2CC[C@H](O)C2)c2ncn(Cc3nnnn3C3CC3)c2n1` [Example 139, (3S)-1-[2-tert-butyl-9-[(1-cyclopropyltetrazol-5-yl)methyl]purin-6-yl]pyrrolidin-3-ol], the EC50 at human CB2 receptors is 201 nM; on human CB1 receptors, above 10000 nM.
